Experiment [1] addresses T1, His-GST-TVMV-hRIPK1(1-324) (Homo sapiens, UniProt Q13546).
T1 construct: The coding region of human RIPK1(1-324) flanked by NdeI site at 5′ end; made in house; host or cells: Spodoptera frugiperda Sf9 insect cells (baculovirus, Bac-to-Bac)
T1 sequence (Q13546 1-324): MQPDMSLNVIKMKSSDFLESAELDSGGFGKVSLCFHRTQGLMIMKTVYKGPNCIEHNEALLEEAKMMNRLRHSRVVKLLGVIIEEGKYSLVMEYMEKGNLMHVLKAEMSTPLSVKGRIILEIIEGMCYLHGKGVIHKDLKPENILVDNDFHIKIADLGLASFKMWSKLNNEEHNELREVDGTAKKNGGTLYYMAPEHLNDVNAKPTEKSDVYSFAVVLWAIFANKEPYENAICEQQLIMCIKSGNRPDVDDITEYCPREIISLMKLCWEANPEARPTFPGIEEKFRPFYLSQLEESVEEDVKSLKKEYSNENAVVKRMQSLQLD
In words: biochemical. It counts as binding. The conditions noted are these: read-out: RIPK1 IC50.

Experiment [2] relates to MLKL phosphorylation in HT29-L23 human colorectal adenocarcinoma cells. In words: MLKL phosphorylation high-content assay. As to conditions: necroptosis induced with TNFα, SMAC mimetic and Z-VAD, 6 h, maximal inhibition defined by Nec1s. It counts as cell-based.
Setting [3] is: HTRF probe displacement, 1 h at rt.
Setting [4] is: read-out: pMLKL IC50, HT29-L23 cells.
The mark [5] stands for this setting: Homo sapiens, read-out: pMLKL IC50, HT29-L23 cells.
Setting [6] is: HT29-L23 cells, read-out: pMLKL IC50.

Like-named read-outs stand apart in the source and are kept apart here.

What is called IC50 is the concentration at which inhibition is half-maximal. For the molecule `Nc1nc2cc(-c3ccc(Cl)c(C(=O)NCC(F)(F)C(O)c4cc(Cl)ccc4F)c3F)ccn2n1` (stereo not drawn) [Example 180, 3-(2-amino-[1,2,4]triazolo[1,5-a]pyridin-7-yl)-6-chloro-N-(3-(5-chloro-2-fluorophenyl)-2,2-difluoro-3-hydroxypropyl)-2-fluorobenzamide], the IC50 in experiment [1] (setting [3]) stood at 2 nM; in experiment [2] (setting [4]), 10 nM.

In the case of `[2H]C(O)(c1ccc(C(F)F)cc1)C(F)(F)CNC(=O)c1c(Cl)ccc(-c2ccn3nc(N)nc3c2)c1F` (single isomer, unassigned) [Example 311, 3-(2-amino-[1,2,4]triazolo[1,5-a]pyridin-7-yl)-6-chloro-N-(3-(4-(difluoromethyl)phenyl)-2,2-difluoro-3-hydroxypropyl-3-d)-2-fluorobenzamide], the IC50 was determined as 5 nM in experiment [1] (setting [3]) and 0.8 nM in experiment [2] (setting [5]). For the molecule `Nc1nc2cc(-c3ccc(Cl)c(C(=O)NCC(F)(F)C(O)c4ccc(F)cc4F)c3F)ccn2n1` (single isomer, unassigned) [Example 179, 3-(2-amino-[1,2,4]triazolo[1,5-a]pyridin-7-yl)-6-chloro-N-(3-(2,4-difluorophenyl)-2,2-difluoro-3-hydroxypropyl)-2-fluorobenzamide], the figures for the IC50 in experiment [1] (setting [3]) and in experiment [2] (setting [4]) were 0.3 nM and 3.7 nM, respectively. `[2H]C([2H])([2H])c1ccc(-c2ccn3nc(N)nc3c2)c(F)c1C(=O)NCC1(C([2H])(O)c2ccc(F)cc2)CC1` (single isomer, unassigned) [Example 309, 3-(2-amino-[1,2,4]triazolo[1,5-a]pyridin-7-yl)-2-fluoro-N-((1-((4-fluorophenyl) (hydroxy)methyl-d)cyclopropyl)methyl)-6-(methyl-d3)benzamide]: the IC50 came to 6.2 nM in experiment [1] (setting [3]) and 11 nM in experiment [2] (setting [5]). For `Nc1nc2cc(-c3ccc(C(F)(F)F)c(C(=O)NCC(F)(F)[C@@H](O)c4ccc(F)cc4)c3F)ccn2n1` [Example 315, (S)-3-(2-amino-[1,2,4]triazolo[1,5-a]pyridin-7-yl)-N-(2,2-difluoro-3-(4-fluorophenyl)-3-hydroxypropyl)-2-fluoro-6-(trifluoromethyl)benzamide], in that order: 6.9 nM and 0.4 nM. With `Cc1ccc(C(O)C(F)(F)CNC(=O)c2c(Cl)ccc(-c3ccn4nc(N)nc4c3)c2F)c(F)c1` (stereo not drawn) [Example 182, 3-(2-amino-[1,2,4]triazolo[1,5-a]pyridin-7-yl)-6-chloro-N-(2,2-difluoro-3-(2-fluoro-4-methylphenyl)-3-hydroxypropyl)-2-fluorobenzamide], the IC50 is 1.2 nM in experiment [1] (setting [3]) and 2.9 nM in experiment [2] (setting [4]).

On to `Cc1ccc(-c2ccn3nc(N)nc3c2)c(F)c1C(=O)NCCC(C)(O)c1ccc(C#N)cc1` (stereo not drawn) [Example 141, 3-{2-amino-[1,2,4]triazolo[1,5-a]pyridin-7-yl}-N-[3-(4-cyanophenyl)-3-hydroxybutyl]-2-fluoro-6-methylbenzamide], for which the results for the IC50 in experiment [1] (setting [3]) and in experiment [2] (setting [5]) were 22 nM and 38 nM, respectively. For the molecule `[2H]C([2H])([2H])c1ccc(-c2ccn3nc(N)nc3c2)c(F)c1C(=O)NCC(F)(F)C(C)(O)c1ccc(Cl)cc1` (single isomer, unassigned) [Example 252, 3-(2-amino-[1,2,4]triazolo[1,5-a]pyridin-7-yl)-N-(3-(4-chlorophenyl)-2,2-difluoro-3-hydroxybutyl)-2-fluoro-6-(methyl-d3)benzamide], the IC50 in experiment [1] (setting [3]) came to 7.2 nM; in experiment [2] (setting [4]), 2.7 nM.

Take `Nc1nc2cc(-c3ccc(Cl)c(C(=O)NCC(F)(F)C(O)c4cc(F)ccc4F)c3F)ccn2n1` (single isomer, unassigned) [Example 177, 3-(2-amino-[1,2,4]triazolo[1,5-a]pyridin-7-yl)-6-chloro-N-(3-(2,5-difluorophenyl)-2,2-difluoro-3-hydroxypropyl)-2-fluorobenzamide]: the results for the IC50 in experiment [1] (setting [3]) and in experiment [2] (setting [4]) were 1.8 nM and 23 nM, respectively. Regarding `CC(O)(c1ccc(F)cc1)C(F)(F)CNC(=O)c1c(Cl)ccc(-c2ccn3nc(N)nc3c2)c1F` (stereo not drawn) [Example 87, 3-(2-amino-[1,2,4]triazolo[1,5-a]pyridin-7-yl)-6-chloro-N-(2,2-difluoro-3-(4-fluorophenyl)-3-hydroxybutyl)-2-fluorobenzamide], in experiment [1] (setting [3]), the IC50 was 8.6 nM. Same read-out and setting: under `Nc1nc2cc(-c3ccc(Cl)c(C(=O)NCC(F)(F)C(O)C4CCC(F)(F)CC4)c3F)ccn2n1` (stereo not drawn) [Example 256, 3-(2-amino-[1,2,4]triazolo[1,5-a]pyridin-7-yl)-6-chloro-N-(3-(4,4-difluorocyclohexyl)-2,2-difluoro-3-hydroxypropyl)-2-fluorobenzamide] stands 3.2 nM; under `Cc1ccc(-c2ccn3nc(N)nc3c2)c(F)c1C(=O)NCCC(O)c1ccc(Cl)c(Cl)c1` (stereo not drawn) [Example 32, 3-(2-amino-[1,2,4]triazolo[1,5-a]pyridin-7-yl)-N-(3-(3,4-dichlorophenyl)-3-hydroxypropyl)-2-fluoro-6-methylbenzamide], 2.2 nM. Same read-out and setting: under `COc1c(-c2ccc(C)c(C(=O)NCC[C@H](O)c3ccc(Cl)cc3)c2F)ccn2nc(N)nc12` [compound 133] stands 3.8 nM. In the case of `COc1ncc(-c2ccn3nc(N)nc3c2)cc1C(=O)NCC[C@H](O)c1ccc(Cl)cc1` [Example 157], the IC50 in experiment [1] (Table 23, representative compounds from WO2018/148626) came out at 59 nM. On to `Cc1ccc(C(O)C(F)(F)CNC(=O)c2c(Cl)ccc(-c3ccn4nc(N)nc4c3)c2F)cc1` (stereo not drawn) [Example 172, 3-(2-amino-[1,2,4]triazolo[1,5-a]pyridin-7-yl)-6-chloro-N-(2,2-difluoro-3-hydroxy-3-(p-tolyl)propyl)-2-fluorobenzamide], for which the IC50 in experiment [1] (setting [3]) was 1.3 nM. For the molecule `Cc1c(C(=O)NCC(F)(F)C(O)c2ccc(Cl)cc2)cc(-c2ccn3nc(N)nc3c2)c(F)c1F` (single isomer, unassigned) [Example 105, 5-(2-amino-[1,2,4]triazolo[1,5-a]pyridin-7-yl)-N-(3-(4-chlorophenyl)-2,2-difluoro-3-hydroxypropyl)-3,4-difluoro-2-methylbenzamide], the IC50 in experiment [2] (setting [6]) stood at 0.5 nM. As to `Nc1nc2cc(-c3ccc(Cl)c(C(=O)NCC(F)(F)C(O)c4ccc(Cl)c(Cl)n4)c3F)ccn2n1` (single isomer, unassigned) [Example 271], the IC50 in experiment [2] (setting [6]) was found to be 1.8 nM. On to `Nc1nc2cc(-c3ccc(F)c(C(=O)NCC(F)(F)[C@@H](F)c4ccc(F)cc4)c3F)ccn2n1` [Example 285, (S)-3-(2-amino-[1,2,4]triazolo[1,5-a]pyridin-7-yl)-2,6-difluoro-N-(2,2,3-trifluoro-3-(4-fluorophenyl)propyl)benzamide], for which the IC50 in experiment [2] (Homo sapiens, HT29-L23 cells, read-out: pMLKL IC50) came to 0.8 nM. For the molecule `Cc1ccc(-c2ccn3nc(N)nc3c2)c(F)c1C(=O)NCC(F)(F)C(C)(O)c1ccc(F)cc1` (single isomer, unassigned) [Example 62, 3-(2-amino-[1,2,4]triazolo[1,5-a]pyridin-7-yl)-N-(2,2-difluoro-3-(4-fluorophenyl)-3-hydroxybutyl)-2-fluoro-6-methylbenzamide], in experiment [2] (setting [6]), the IC50 came to 1.1 nM. In the case of `Cc1ccc(-c2ccn3nc(N)nc3c2)c(F)c1C(=O)NCC(F)(F)C(C)(O)c1ccc(F)cc1` (racemic) [Example 18, 3-(2-amino-[1,2,4]triazolo[1,5-a]pyridin-7-yl)-N-(2,2-difluoro-3-(4-fluorophenyl)-3-hydroxybutyl)-2-fluoro-6-methylbenzamide], in experiment [1] (setting [3]), the IC50 worked out at 8.9 nM. In the case of `COc1ccc(-c2ccn3nc(N)nc3c2)c(F)c1C(=O)NCC(F)(F)C(O)c1ccc(F)cc1` (single isomer, unassigned) [Example 125, 3-(2-amino-[1,2,4]triazolo[1,5-a]pyridin-7-yl)-N-(2,2-difluoro-3-(4-fluorophenyl)-3-hydroxypropyl)-2-fluoro-6-methoxybenzamide], in experiment [2] (setting [6]), the IC50 was determined as 2.9 nM. On to `COc1ccc(C(O)C(F)(F)CNC(=O)c2c(Cl)ccc(-c3ccn4nc(N)nc4c3)c2F)cc1` (single isomer, unassigned) [Example 184, 3-(2-amino-[1,2,4]triazolo[1,5-a]pyridin-7-yl)-6-chloro-N-(2,2-difluoro-3-hydroxy-3-(4-methoxyphenyl)propyl)-2-fluorobenzamide], for which, in experiment [2] (setting [5]), the IC50 stood at 0.4 nM. `[2H]C([2H])([2H])C(O)(c1ccc(F)cc1)C(F)CNC(=O)c1c(C(F)F)ccc(-c2ccn3nc(N)nc3c2)c1F` (single isomer, unassigned) [Example 197, 3-(2-amino-[1,2,4]triazolo[1,5-a]pyridin-7-yl)-6-(difluoromethyl)-2-fluoro-N-(2-fluoro-3-(4-fluorophenyl)-3-hydroxybutyl-4,4,4-d3)benzamide]: the IC50 in experiment [2] (setting [6]) was found to be 0.3 nM. With `[2H]C([2H])([2H])c1cccc(C(O)C(F)(F)CNC(=O)c2c(C([2H])([2H])[2H])ccc(-c3ccn4nc(N)nc4c3)c2F)c1F` (single isomer, unassigned) [Example 206, 3-(2-amino-[1,2,4]triazolo[1,5-a]pyridin-7-yl)-N-(2,2-difluoro-3-(2-fluoro-3-(methyl-d3)phenyl)-3-hydroxypropyl)-2-fluoro-6-(methyl-d3)benzamide], in experiment [1] (setting [3]), the IC50 was found to be 7.7 nM.

(Values after US11767322B2 (BRISTOL-MYERS SQUIBB COMPANY, priority 2020, dated 2023).)
